Measurements taken from publication PMC11500415, “Chemical inhibition of stomatal differentiation by perturbation of the master-regulatory bHLH heterodimer via an ACT-Like domain” (Nature Communications, 2024).
Where “and” joins values, the source holds several entries; their conditions need not be identical. Equal entries are not always repeated. Where two headings read alike, the source gives them in different places.

Legend:
SCRM_ACTL = molecular target: T1, SCRM_ACTL (Arabidopsis thaliana, UniProt Q9LSE2); assay: BLI direct binding; set-up: species or system A. thaliana
T1 construct: SCRM-ACTL (405-494); GST (N, cleaved yes); made in house; host or cells: E. coli BL21
T1 sequence (Q9LSE2 405-494): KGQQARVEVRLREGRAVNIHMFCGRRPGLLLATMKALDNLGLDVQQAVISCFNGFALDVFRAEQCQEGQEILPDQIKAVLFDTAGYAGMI
From the text: (§1) A. thaliana SCRM (1-494), ΔNSPCH (98-364), MUTE (1-202), ΔNFAMA (190-414), MUTEΔC (1-114), MUTER133A_R134A, MUTEE162A_E163A, MUTER133A_R134A_E162A_E163A, SCRM-ACTL (405-494), MUTE-ACTL (114-202), SPCH-ACTL (285-364), FAMA-ACTL (306-414), MUTE_ACTLR133A_R134A, MUTE_ACTLE162A_E163A, MUTE_ACTLR133A_R134A_E162A_E163A were cloned into pGEX-4T-1 vector with an N-terminal GST tag and a thrombin cleavage sequence. For protein expression, the constructs were transformed into E. coli strain BL21. For each transformant, a single colony was selected and incubated in 10 ml LB liquid media. The overnight-incubated E. coli suspensions were transferred to 1 L LB medium and incubated at 37 °C for around 2 h until the OD600 reached 0.4–0.6. The isopropyl β-D-1-thiogalactopyranoside ([…] of final concentration) was added to the cultures and the strains were incubated at 22 °C for a further 18 h. GST-fused proteins were purified using glutathione agarose resin. The soluble portion of the cell lysate was loaded onto a GST-Sepharose column. Nonspecifically bound proteins were removed by washing the column with 20 mM Tris pH 8.0, 200 mM NaCl. The bound GST-fused protein was eluted with 10 mm glutathione and 20 mM Tris pH 8.0, 200 mM NaCl. The GST-fused proteins were exchanged with phosphate-buffered saline buffer, and then the solution was treated with 50 μg of thrombin for 10–12 h at 16 ^οC. The GST portion of the protein was cleaved during thrombin digestion, and then the whole solution was reloaded onto the glutathione S-transferase column to obtain pure protein. The purified proteins were further purified by gel filtration on a Superdex-200 (GE) column using fast protein liquid chromatography and phosphate buffer (pH 7.2) as the eluent. The purity of the protein was checked by SDS-PAGE. For detailed lists of oligo DNA and plasmid information, see Supplementary Tables 5, 6, respectively.
(§2) The binding affinities of SCRM to MUTE / MUTER133A_R134A / MUTEE162A_E163A / MUTER133A_R134A_E162A_E163A in presence and absence of Stomidazolone (3) and its analogues (AYSJ1059 (5) and AYSJ1061 (6)), and Stomidazolone / AYSJ1059 / AYSJ1061 interactions with GST-tagged SCRM, MUTE, SPCH, FAMA, MUTE ΔACTL, MUTE_ACTL, SCRM_ACTL, SPCH_ACTL and FAMA_ACTL, MUTER133A_134A, MUTEE162A_E163A, MUTER133A_R134A_E162A_E163A were measured using the Octet Red96 system (ForteBio, Pall Life Sciences) following the manufacturer’s protocols. The optical probes coated with anti-GST were first loaded with 500 nM GST tagged proteins before kinetic binding analyses. The experiment was performed in 96-well plates maintained at 30 °C. Each well was loaded with 200 μL reaction volume for the experiment. The binding buffer used in these experiments contained 1× PBS supplemented with 2% DMSO, 0.02% Tween20. The concentrations of the Stomidazolone as the analyte in the binding buffer were 100, 50, 25, 12.5, 6.25, 3.12, and 1.56 μM. There was no binding of the analytes to the unloaded probes as shown by the control wells. Binding kinetics to all seven concentrations of the analytes were measured simultaneously using default parameters on the instrument. The data were analyzed using the Octet data analysis software. The association and dissociation curves were fit with the 1:1 homogeneous ligand model. The kobs (observed rate constant) values were used to calculate Kd, with steady-state analysis of the direct binding. See Supplementary Table 3 for details.

FAMA = molecular target: T2, FAMA (Arabidopsis thaliana, UniProt Q56YJ8); assay: BLI direct binding; set-up: species or system A. thaliana
T2 construct: ΔNFAMA (190-414); made in house; host or cells: E. coli BL21
T2 sequence (Q56YJ8 190-414): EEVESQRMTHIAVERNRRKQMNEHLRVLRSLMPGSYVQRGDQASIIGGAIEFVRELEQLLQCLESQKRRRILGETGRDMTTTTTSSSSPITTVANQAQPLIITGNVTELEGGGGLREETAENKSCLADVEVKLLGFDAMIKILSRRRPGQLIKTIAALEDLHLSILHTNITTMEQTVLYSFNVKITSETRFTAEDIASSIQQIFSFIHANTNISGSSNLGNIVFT
From the text: as §1, §2

[1] = FAMA loaded on Anti-GST sensor, fit per sensor, Stomid Conc. (mM) 200-3.12, rep-1, rep-2
[2] = FAMA, Conc. (mM) 3.12, rep-1, rep-2
[3] = FAMA, Conc. (mM) 6.25, rep-1, rep-2
[4] = FAMA, Conc. (mM) 12.5, rep-1, rep-2
[5] = FAMA, Conc. (mM) 25, rep-1, rep-2
[6] = FAMA, Conc. (mM) 50, rep-1, rep-2
[7] = FAMA, Conc. (mM) 100, rep-1, rep-2
[8] = FAMA, Conc. (mM) 200, rep-1, rep-2

SMILES: O=C1C(c2ccccc2)=NC(NS(=O)(=O)c2ccccc2)(c2ccccc2)N1S(=O)(=O)c1ccccc1 (stereo not drawn) [Stomidazolone]
- Kd (SCRM_ACTL; BLI steady state, read-out: KD (SS)): 76 ± 6.8 µM
- Kd (SCRM_ACTL; BLI, read-out: KD): 78.2 ± 1.2 µM
- Kd (FAMA; BLI steady state, FAMA, read-out: KD (SS)): 0.0782 ± 0.0065 mM
- kdis (FAMA; [1]): 0.177 s⁻¹ and 0.176 s⁻¹ and 0.175 s⁻¹ and 0.178 s⁻¹ and 0.171 s⁻¹ and 0.18 s⁻¹
- kon (FAMA; [1]): 2080 M⁻¹ s⁻¹
- Kd (FAMA; FAMA loaded on Anti-GST sensor, fit per sensor, Stomid Conc. (mM) 200-3.12, rep-1, rep-2, read-out: KD): 0.0867 mM and 0.0859 mM and 0.0882 mM and 0.0891 mM and 0.0863 mM and 0.0866 mM and 0.0851 mM and 0.0817 mM and 0.0856 mM and 0.0903 mM and 0.0845 mM
- RMax (FAMA; [2]): 0.095 and 0.0512
- Req/Rmax(%) (FAMA; [2]): 100%
- Response (FAMA; [2]): 0.0912 and 0.0512
- kobs (FAMA; [2]): 0.00577 s⁻¹ and 0.0035 s⁻¹
- RMax (FAMA; [3]): 0.108 and 0.0812
- Req/Rmax(%) (FAMA; [3]): 97% and 100%
- Response (FAMA; [3]): 0.1071 and 0.0812
- RMax (FAMA; [4]): 0.124 and 0.1621
- Response (FAMA; [4]): 0.1223 and 0.1621
- RMax (FAMA; [5]): 0.165 and 0.1913
- Response (FAMA; [5]): 0.1623 and 0.1913
- RMax (FAMA; [6]): 0.251 and 0.2843
- Req/Rmax(%) (FAMA; [6]): 89%
- Response (FAMA; [6]): 0.2461 and 0.2843
- RMax (FAMA; [7]): 0.435 and 0.3712
- Response (FAMA; [7]): 0.4312 and 0.3712
- RMax (FAMA; [8]): 0.553 and 0.5072
- Req/Rmax(%) (FAMA; [8]): 98%
- Response (FAMA; [8]): 0.5523 and 0.5072
- koff (FAMA; read-out: kdis(1/s), FAMA loaded on Anti-GST sensor, fit per sensor, Stomid Conc. (mM) 200-3.12, rep-1, rep-2): 0.179 s⁻¹
- kon (FAMA; read-out: kon(1/Ms), FAMA loaded on Anti-GST sensor, fit per sensor, Stomid Conc. (mM) 200-3.12, rep-1, rep-2): 2070 M⁻¹ s⁻¹
